Assay results taken from patent US9833487B2, “Composition for preventing and treating arthritic diseases” (priority 2008, dated 2017).

Assays:
MMP-13 (collagenase-13) = experiment: MMP-13 activity in human cartilage tissue medium; type: cell-based; settings: FIG. 14
Experimental: (§1) The joint cartilage of human was provided from the patient who had taken artificial joint surgery (Orthopedics Surgery Dep. of Kyunghee Medical Center). […] The tissue was washed with the medium several times and then the articular tissue was cultured at 37° C. in humidified […] incubator. 1 or 2 days after the incubation, the medium was replaced with new basic medium containing inactivated 5% fetal bovine serum with heat treatment, 10 mM HEPES, and 100 unit/ml of penicillin-streptomycin, and 30 mg of the chondrocyte was transferred to 48-well plate. After culturing for 1 hour, 5 ng/μl of interleukin-1α (IL-1α, R&D system, USA) was added to the medium to induce inflammation and various concentrations of test sample (KM-1), ETCP (SK Chemicals), Celecoxib (CEL, Pfizer Co., USA), and Glucosamine (GLUCO, Sigma Co., USA), i.e., 0.1, 0.2, and 0.4 mg/ml, were added thereto respectively. […] In order to measure proteolytic activity, each 25 μl of medium was added to 96-well plate with 50 μl of the substrate to incubate at 37° C. for 1 hr and the optical density was measured by ELISA reader (Molecular devices, USA) at 450 nm. The activity of each sample on MMP-1 and MMP-13 was determined by calculating the MMP (%) of medium in each well.

[1] = system: GAG degradation in human articular cartilage tissue; experiment: Dissociation of glycosaminoglycan (DMB assay), IL-1α induced cartilage tissue; type: cell-based; settings: 0.1, 0.2, 0.4 mg/ml, FIG. 12
Experimental: The joint cartilage of human was provided from the patient who had taken artificial joint surgery (Orthopedics Surgery Dep. of Kyunghee Medical Center). […] The tissue was washed with the medium several times and then the articular tissue was cultured at 37° C. in humidified […] incubator. 1 or 2 days after the incubation, the medium was replaced with new basic medium containing inactivated 5% fetal bovine serum with heat treatment, 10 mM HEPES, and 100 unit/ml of penicillin-streptomycin, and 30 mg of the chondrocyte was transferred to 48-well plate. After culturing for 1 hour, 5 ng/μl of interleukin-1α (IL-1α, R&D system, USA) was added to the medium to induce inflammation and various concentrations of test sample (KM-1), ETCP (SK Chemicals), Celecoxib (CEL, Pfizer Co., USA), and Glucosamine (GLUCO, Sigma Co., USA), i.e., 0.1, 0.2, and 0.4 mg/ml, were added thereto respectively. […] The concentration of GAG in the culture medium of cartilage tissue incubated with the procedure disclosed in Reference Example 3 was measured by determining the amount of polyanionic substance produced by being reacted with blyscan dye solution and chondroitin sulfate was used as a standard. […] The amount of spectroscopic GAG was determined at 540 nm and the inhibition rate was expressed based on the amount of degradated GAG induced by interleukin-1α (IL-1α).

MMP-1 (collagenase-1) = experiment: MMP-1 activity in human cartilage tissue medium; type: cell-based; settings: FIG. 15
Experimental: as §1

pJNK = experiment: MAPK phosphorylation (western blot), pJNK; type: cell-based, human; settings: FIG. 18
pERK = experiment: MAPK phosphorylation (western blot), pERK; type: cell-based, human; settings: FIG. 18
[2] = system: proteoglycan mRNA in cartilage tissue; experiment: Gene expression of proteoglycan (RT-PCR); type: cell-based, human; settings: IL-1α treated cartilage tissue; FIG. 13
Experimental: (§2) The joint cartilage of human was provided from the patient who had taken artificial joint surgery (Orthopedics Surgery Dep. of Kyunghee Medical Center). […] The tissue was washed with the medium several times and then the articular tissue was cultured at 37° C. in humidified […] incubator. 1 or 2 days after the incubation, the medium was replaced with new basic medium containing inactivated 5% fetal bovine serum with heat treatment, 10 mM HEPES, and 100 unit/ml of penicillin-streptomycin, and 30 mg of the chondrocyte was transferred to 48-well plate. After culturing for 1 hour, 5 ng/μl of interleukin-1α (IL-1α, R&D system, USA) was added to the medium to induce inflammation and various concentrations of test sample (KM-1), ETCP (SK Chemicals), Celecoxib (CEL, Pfizer Co., USA), and Glucosamine (GLUCO, Sigma Co., USA), i.e., 0.1, 0.2, and 0.4 mg/ml, were added thereto respectively. […] The stained product was washed for 10 minutes with distilled water and the result was determined at UV wavelength (260 nm). The expression of proteoglycan and Col II gene collected from the cartilage tissue and chondrocytic cell of rabbit in above Reference Example 3 was determined and the test was performed by using reverse transcription polymerase chain reaction (RT-PCR) with the method disclosed in Reference Example 4.

[3] = system: type II collagen mRNA in cartilage tissue; experiment: Gene expression of Col II (RT-PCR); type: cell-based, human; settings: IL-1α treated cartilage tissue; FIG. 13
Experimental: as §2

pp 38 = experiment: MAPK phosphorylation (western blot), pp38; type: cell-based, human; settings: FIG. 18

SMILES: O=C(/C=C/c1ccc(O)c(O)c1)O[C@@H]1C[C@](O)(C(=O)O)C[C@@H](O)[C@H]1O [chlorogenic acid]
- inhibition of MMP-13 activity (MMP-13 (collagenase-13)): significantly inhibited the activity of collagenase MMP-1 and MMP-13 in a dose dependent manner
- inhibition of the degradation of GAG [1]: potently inhibited the degradation of GAG
- inhibition of MMP-1 activity (MMP-1 (collagenase-1)): significantly inhibited the activity of collagenase MMP-1 and MMP-13 in a dose dependent manner
- inhibition of pJNK (pJNK): potently inhibited
- inhibition of pERK (pERK): inhibited the activity of pERK
- mRNA gene expression of proteoglycan [2]: increased mRNA gene expression of proteoglycan and type II collagen
- mRNA gene expression of type II collagen [3]: increased mRNA gene expression of proteoglycan and type II collagen
- inhibition of pp 38 (pp 38): potently inhibited
